Results: ChEMBL document CHEMBL1155471, “Discovery of potent, balanced and orally active dual NK1/NK3 receptor ligands” (Bioorg Med Chem Lett, 2010)

Columns and labels:
[1] = molecular target: Substance-P receptor (Homo sapiens, UniProt P25103); experiment: Displacement of [3H]substance P from human NK1 receptor expressed in CHO cells; type: cell-based
[2] = molecular target: T1, Neuromedin-K receptor (Homo sapiens, UniProt P29371); experiment: Displacement of [3H]SR142801 from human NK3 receptor expressed in HEK293-EBNA cells; type: cell-based
T1 sequence (P29371 whole entry): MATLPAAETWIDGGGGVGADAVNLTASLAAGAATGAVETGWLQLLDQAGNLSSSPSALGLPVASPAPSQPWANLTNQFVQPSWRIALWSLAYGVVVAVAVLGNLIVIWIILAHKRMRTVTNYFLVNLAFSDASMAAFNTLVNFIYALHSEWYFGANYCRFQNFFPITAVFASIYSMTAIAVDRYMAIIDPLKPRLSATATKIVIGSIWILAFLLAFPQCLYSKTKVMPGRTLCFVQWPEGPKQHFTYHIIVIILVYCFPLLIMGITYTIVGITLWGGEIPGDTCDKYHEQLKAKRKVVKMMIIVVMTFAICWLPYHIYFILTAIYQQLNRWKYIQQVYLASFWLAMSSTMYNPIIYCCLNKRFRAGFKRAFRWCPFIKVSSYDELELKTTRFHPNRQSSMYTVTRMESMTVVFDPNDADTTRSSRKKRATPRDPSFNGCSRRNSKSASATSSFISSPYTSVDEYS

[3] = test system: Meriones unguiculatus; experiment: Inhibition of GR-73632-induced foot tapping behavior in Mongolian gerbil at 10 mg/kg, po administered 2 hrs before GR-73632 challenge; type: functional
[4] = test system: Meriones unguiculatus; experiment: Inhibition of GR-73632-induced foot tapping behavior in po dosed Mongolian gerbil administered 2 hrs before GR-73632 challenge; type: functional; conditions: read-out: ID50 (the source's name)

Sequence of Substance-P receptor (P25103 whole entry): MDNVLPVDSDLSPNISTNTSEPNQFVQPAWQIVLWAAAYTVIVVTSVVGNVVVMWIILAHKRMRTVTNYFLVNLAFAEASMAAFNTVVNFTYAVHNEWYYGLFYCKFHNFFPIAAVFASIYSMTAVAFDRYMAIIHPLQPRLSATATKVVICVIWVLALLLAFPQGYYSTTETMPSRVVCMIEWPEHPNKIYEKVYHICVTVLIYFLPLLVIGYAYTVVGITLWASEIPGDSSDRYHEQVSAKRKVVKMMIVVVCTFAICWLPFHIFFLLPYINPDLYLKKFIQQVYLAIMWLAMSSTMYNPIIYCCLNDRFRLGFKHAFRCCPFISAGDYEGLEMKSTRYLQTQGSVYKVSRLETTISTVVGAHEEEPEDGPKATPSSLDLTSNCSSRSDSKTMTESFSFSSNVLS

SMILES	Ki [1]	Ki [2]	inhibition in vivo at 10 mg/kg [3]	ED50 [4]
CN(C(=O)C(C)(C)c1cc(C(F)(F)F)cc(C(F)(F)F)c1)c1cnc(N2CC[C@H](O)[C@H]2CO)cc1-c1ccccc1Cl	1.58 nM	0.91 nM	–	–
CN(C(=O)C(C)(C)c1cc(C(F)(F)F)cc(C(F)(F)F)c1)c1cnc(N2CCCC[C@@H]2CO)cc1-c1ccccc1Cl	2.27 nM	29.7 nM	–	–
CN(C(=O)C(C)(C)c1cc(C(F)(F)F)cc(C(F)(F)F)c1)c1cnc(N2CC[C@@H](O)C2)cc1-c1ccccc1Cl	2.62 nM	6.87 nM	–	–
CN(C(=O)C(C)(C)c1cc(C(F)(F)F)cc(C(F)(F)F)c1)c1cnc(N2CCC[C@H]2CO)cc1-c1ccccc1Cl	1 nM	0.74 nM	–	–
COC[C@@H]1C[C@@H](OC)CN1c1cc(-c2ccccc2Cl)c(N(C)C(=O)C(C)(C)c2cc(C(F)(F)F)cc(C(F)(F)F)c2)cn1	0.91 nM	29.8 nM	–	–
CN(C(=O)C(C)(C)c1cc(C(F)(F)F)cc(C(F)(F)F)c1)c1cnc(N(CCO)CCCO)cc1-c1ccccc1Cl	1.38 nM	0.95 nM	–	–
CCN(CCO)c1cc(-c2ccccc2Cl)c(N(C)C(=O)C(C)(C)c2cc(C(F)(F)F)cc(C(F)(F)F)c2)cn1	3.37 nM	12.2 nM	100%	–
CN(C(=O)C(C)(C)c1cc(C(F)(F)F)cc(C(F)(F)F)c1)c1cnc(N2C[C@H](O)C[C@H]2CO)cc1-c1ccccc1Cl	–	1.12 nM	–	1.1 mg/kg
CN(C(=O)C(C)(C)c1cc(C(F)(F)F)cc(C(F)(F)F)c1)c1cnc(N2C[C@@H](O)C[C@H]2CO)cc1-c1ccccc1Cl	–	–	–	1.3 mg/kg
CN(C(=O)C(C)(C)c1cc(C(F)(F)F)cc(C(F)(F)F)c1)c1cnc(N2CCCC[C@H]2CO)cc1-c1ccccc1Cl	11.1 nM	7.72 nM	–	–
CN(CCO)c1cc(-c2ccccc2Cl)c(N(C)C(=O)C(C)(C)c2cc(C(F)(F)F)cc(C(F)(F)F)c2)cn1	0.78 nM	2.91 nM	–	–

Further compounds by falling Ki [1], results first:

Ki [1]	Ki [2]	SMILES	inhibition in vivo at 10 mg/kg [3]	ED50 [4]
3.05 nM	93.3 nM	COCCNc1cc(-c2ccccc2Cl)c(N(C)C(=O)C(C)(C)c2cc(C(F)(F)F)cc(C(F)(F)F)c2)cn1	–	–
2.24 nM	5.4 nM	CCCN(CCO)c1cc(-c2ccccc2Cl)c(N(C)C(=O)C(C)(C)c2cc(C(F)(F)F)cc(C(F)(F)F)c2)cn1	100%	–
1.72 nM	15.1 nM	CN(C(=O)C(C)(C)c1cc(C(F)(F)F)cc(C(F)(F)F)c1)c1cnc(N2CCCC(O)C2)cc1-c1ccccc1Cl (configuration not stated)	–	–
1.58 nM	7.27 nM	CN(C(=O)C(C)(C)c1cc(C(F)(F)F)cc(C(F)(F)F)c1)c1cnc(N2CCC[C@@H]2CO)cc1-c1ccccc1Cl	–	–
1.15 nM	0.91 nM	CN(C(=O)C(C)(C)c1cc(C(F)(F)F)cc(C(F)(F)F)c1)c1cnc(N(CCO)CCO)cc1-c1ccccc1Cl	–	–
1.12 nM	–	CN(C(=O)C(C)(C)c1cc(C(F)(F)F)cc(C(F)(F)F)c1)c1cnc(NCCO)cc1-c1ccccc1Cl	–	1 mg/kg
0.86 nM	8.38 nM	CN(C(=O)C(C)(C)c1cc(C(F)(F)F)cc(C(F)(F)F)c1)c1cnc(N2CC[C@H](O)C2)cc1-c1ccccc1Cl	–	–
